From ChEMBL document CHEMBL1157937, “Discovery of novel leukotriene A4 hydrolase inhibitors based on piperidine and piperazine scaffolds” (Bioorg Med Chem Lett, 2010)

What was measured:
[1] = biological target: T1, Leukotriene A-4 hydrolase (Homo sapiens, UniProt P09960)
T1 sequence (P09960 whole entry): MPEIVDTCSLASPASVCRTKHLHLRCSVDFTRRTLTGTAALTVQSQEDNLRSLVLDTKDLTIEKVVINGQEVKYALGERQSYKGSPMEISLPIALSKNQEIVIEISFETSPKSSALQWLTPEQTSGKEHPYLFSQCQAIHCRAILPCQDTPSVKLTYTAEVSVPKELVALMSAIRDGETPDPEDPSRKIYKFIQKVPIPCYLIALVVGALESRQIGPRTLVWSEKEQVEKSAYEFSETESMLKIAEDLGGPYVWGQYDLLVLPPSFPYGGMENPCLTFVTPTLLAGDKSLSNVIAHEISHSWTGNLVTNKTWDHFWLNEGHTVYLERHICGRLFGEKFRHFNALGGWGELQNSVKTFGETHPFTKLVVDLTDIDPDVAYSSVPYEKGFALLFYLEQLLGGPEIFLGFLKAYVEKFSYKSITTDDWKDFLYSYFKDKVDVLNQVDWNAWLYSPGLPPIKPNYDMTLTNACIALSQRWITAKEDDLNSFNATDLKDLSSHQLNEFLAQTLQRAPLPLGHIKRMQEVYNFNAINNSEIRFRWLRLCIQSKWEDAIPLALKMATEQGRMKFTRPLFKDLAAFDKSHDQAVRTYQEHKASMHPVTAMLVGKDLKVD
Description: Inhibition of human recombinant LTA4H hydrolysis assessed as inhibition of LTB4 formation by LC-MS/MS

[2] = biological target: T1, Leukotriene A-4 hydrolase; remark: listed apart in the source
Description: Inhibition of human LTA4H hydrolysis assessed as inhibition of Ca2+ ionophore-stimulated LTB4 formation in human whole blood by ELISA

SMILES | IC50 [1] [nM] | IC50 [2] [nM]
c1ccc(-c2ccc(Oc3ccc(OC[C@@H]4CCCCN4)cc3)cc2)cc1 | 114 | 43
Fc1ccc(Oc2ccc(OC[C@@H]3CCCCN3)cc2)cc1 | 174 | 90
Clc1ccc(Cc2ccc(OC[C@H]3CCCCN3)cc2)cc1 | 315 | –
Clc1ccc(Cc2ccc(OC[C@@H]3CCCCN3)cc2)cc1 | 438 | –
O=C(O)CN1CCCC[C@H]1COc1ccc(Oc2ccc(Cl)cc2)cc1 | 880 | –
Clc1ccc(Oc2ccc(OC[C@@H]3CCCCN3Cc3ncon3)cc2)cc1 | 6900 | –
O=C(O)CCN1CCCC[C@H]1COc1ccc(Oc2ccc(Cl)cc2)cc1 | 212 | –
c1ccc(Cc2ccc(OCC3CN(Cc4ccccc4)CCN3)cc2)cc1 (configuration not stated) | 660 | –
c1ccc(Cc2ccc(OCC3CNCCN3)cc2)cc1 (configuration not stated) | 342 | –
c1ccc(Cc2ccc(OCC3CCCCN3)cc2)cc1 (racemic) | 134 | 105

Stronger by IC50 [1], values ahead:

IC50 [1] [nM] | IC50 [2] [nM] | SMILES
60 | – | c1cc(-c2ccc(Cc3ccc(OC[C@@H]4CCCCN4)cc3)cc2)cs1
96 | 29 | c1ccc(-c2ccc(Oc3ccc(OC[C@H]4CCCCN4)cc3)cc2)cc1
53 | 6 | O=C(O)CCCN1CCCC[C@@H]1COc1ccc(Oc2ccc(Cl)cc2)cc1
106 | 23 | O=C(O)CCCN1CCCC[C@H]1COc1ccc(Oc2ccc(Cl)cc2)cc1
110 | 40 | Clc1ccc(Oc2ccc(OC[C@@H]3CCCCN3)cc2)cc1
94 | 60 | c1ccc(Cc2ccc(OC[C@H]3CCCCN3)cc2)cc1
48 | 126 | c1ccc(Oc2ccc(OC[C@H]3CCCCN3)cc2)cc1
44 | 286 | c1ccc(Oc2ccc(OC[C@@H]3CCCCN3)cc2)cc1
93 | 173 | FC(F)(F)c1ccc(Oc2ccc(OC[C@H]3CCCCN3)cc2)cc1
70 | 207 | c1ccc(Oc2ccc(OCC3CCCCN3)cc2)cc1 (racemic)
